Test results published in patent US20070161542A1, “Ptb1b photoprobes” (priority 2003, published 2007).

Target: T1, PTP1B in HEPG2 whole cells (Homo sapiens, UniProt P18031)
T1 construct: Labeling of Endogenous PTP1B in HEPG2 Cell Lysate; endogenous in cells; host or cells: HepG2 (human hepatoma, ATCC)
T1 sequence (P18031 1-435): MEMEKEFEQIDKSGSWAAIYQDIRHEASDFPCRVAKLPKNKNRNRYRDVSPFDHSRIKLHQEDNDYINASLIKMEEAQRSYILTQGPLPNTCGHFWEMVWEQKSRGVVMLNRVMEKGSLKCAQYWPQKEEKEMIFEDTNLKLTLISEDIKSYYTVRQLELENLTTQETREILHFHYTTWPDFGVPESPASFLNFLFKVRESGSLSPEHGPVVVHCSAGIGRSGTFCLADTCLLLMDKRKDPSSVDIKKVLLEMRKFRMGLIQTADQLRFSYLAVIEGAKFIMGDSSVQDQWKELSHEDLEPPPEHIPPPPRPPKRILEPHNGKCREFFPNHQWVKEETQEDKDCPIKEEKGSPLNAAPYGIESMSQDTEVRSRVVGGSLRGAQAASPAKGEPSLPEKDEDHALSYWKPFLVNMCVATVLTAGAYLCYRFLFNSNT
Test: Labeling of endogenous PTP1B in HEPG2 whole cells
Assay type: cell-based
Details: mass balance on total counts, 5 nM probe
Method: Human hepatoma cells (HepG2) were obtained from American Type Culture Collection and maintained in regular MEM containing 10% FBS and 1% antibiotics at 37° C., 5% CO2. For photoprobe experiments, cells (2×10^4) were grown until 80% confluence in 6-well plates and serum starved for 14 hours by incubating in MEM with 1% antibiotics without FBS.
HEPG2 cells were grown to ˜80% confluency in 6-well dishes. Media was removed and washed twice with Hanks-Hepes buffer (15 mM Hepes). For HepG2 lysate studies, the cells were lysed on ice for 15 minutes using 1 ml lysate buffer (50 mM Tris pH 7.4, 150 mM NaCl, 1% Triton X-100, 5 mM EDTA, 5 mM DTT, Complete™ protease inhibitor tablet). […] The protein concentration of the lysates was determined by the method of Lowry (detergent compatible).
PTP1B was immunoprecipitated from HepG2 cell lysates (1 ml of 1 mg/ml) using 3.5 ug of anti-PTP1B antibody (BDT) overnight at 4° C. with rotation. […] For autoradiogram detection of radioactivity, the gels were dried and exposed to BioMax MS film with an intensifying screen at −80° C. Protein bands were quantified using a scanning densitometer (Bio-Rad).
The compound of Example 1 at various concentrations was incubated with HEPG2 whole cells for 30 min and was irradiated on ice for 15 min. The cells were then lysed, and labeled PTP1B was measured after immunoprecipitation. […]

SMILES: NC(=O)[C@H](Cc1ccc(C(F)(F)P(=O)(O)O)c(Br)c1)NC(=O)[C@H](Cc1ccc(C(F)(F)P(=O)(O)O)c(Br)c1)NC(=O)c1cc(I)cc(C2(C(F)(F)F)N=N2)c1 [Example 1, Tetraamnionium 3-bromo-4-(difluoro(phosphonato)methyl)-N-(3-iodo-5-(3-(trifluoromethyl)-3H-diaziren-3-yl)benzoyl)-L-phenylalanyl-3-bromo-4-(difluoro(phosphonato)methyl)-L-phenylalaninamide]
- cell permeability (share of probe associated with the cell): around 10%
